“And” between values parts separate entries of the source, which are not always exact repeats. Identical values can stand only once.
Test system: SHIV-SF162P3
Test: Repeated escalating-dose rectal SHIV challenge study (plasma viraemia by gag RT-qPCR)
Type: in vivo, rhesus macaques of Indian origin
Settings: for Proportion of animals protected: 15 weekly rectal challenges, follow-up to week 24; for First viremic timepoint: individual infected animals; for Plasma SHIV viral load: GS-CA1 150mg/kg group
Description: For the challenge study, 24 outbred rhesus macaques of Indian origin were assigned to the three study groups with even sex and weight distributions. All animals were housed at Alpha Genesis (Yemassee, SC), and all procedures were conducted in compliance with all relevant local, state and federal regulations and were approved by the Alpha Genesis IACUC. […] The injection sites were monitored daily by veterinary staff for 3 days. Beginning in week 1, animals in all three groups were challenged by the intrarectal route with 1 ml of RPMI containing the specified dilution of a 3.62 × 10^3 TCID50 SHIV-SF162P3 stock. At each respective time point, the challenges were performed on the same day, using the same virus stock and inoculation method across the three groups. Whole blood was collected and processed into plasma and PBMCs as necessary to assess routine haematology, clinical chemistry, viral load and serology as well as for bioanalysis of drug levels. The animals were considered to be protected if they remained SHIV negative by plasma PCR assay and seronegative by enzyme immunoassay throughout the 15-week challenge phase and the 9-week follow-up.
RNA was extracted from rhesus macaque plasma using a QIAcube high-throughput instrument and an IndiSpin QIAcube HT Pathogen kit (Qiagen). RNA standards using the SIV gag sequence were generated by AmpliCap-Max T7 High-Yield Message Maker kit (Cell Script) and were purified using an RNA Clean and Concentrator kit (Zymo Research). Log dilutions of the RNA were included with each RT–qPCR assay. Reverse transcription of standards and samples was performed using a Superscript III VILO kit (Invitrogen). qPCR was performed using forward primer 5′-[…]-3′, reverse primer 5′-[…]-3′ and fluorescently labelled primer 5′-[…]-3′ on a Quantstudio 6 Flex system (Applied Biosystems). The assay LOD was 200 copies gag per ml.
Protection against acquired infection was analysed using Cox proportional hazard regression models based on the exact partial likelihood for discrete time expressed in weeks, which explicitly accounts for the time-varying viral challenge dose in the model. The hazard ratios with 95% confidence intervals for per-exposure relative reductions in acquisition risk were calculated for the GS-CA1-treated groups, and the results were compared with those for the vehicle-treated control group. Comparisons were considered statistically significant at a two-sided alpha level of 0.05 (P < 0.05). Statistical analyses were performed using GraphPad Prism version 8.1.2, SAS version 9.4 and R Studio software version 4.0.5.

CC(C)(C#Cc1ccc(-c2ccc(Cl)c3c(NS(=O)(=O)C4CC4)nn(CC(F)F)c23)c([C@H](Cc2cc(F)cc(F)c2)NC(=O)Cn2nc(C(F)F)c3c2C(F)(F)[C@@H]2C[C@H]32)n1)S(C)(=O)=O [GS-CA1]
Median weeks to viraemia (95% CI) (150 mg/kg single s.c.): 16 weeks and 16 (11, –) weeks | study week until which no viraemia was detected in the group (150 mg/kg single s.c.): 11 week | per-exposure risk reduction (150 mg/kg single s.c. vs vehicle): 87% | Proportion of animals protected (150 mg/kg single s.c.): 2/8 | First viremic timepoint (150 mg/kg): 16 study week and 13 study week and 11 study week and 14 study week and 17 study week | Median weeks to viraemia (95% CI) (300 mg/kg single s.c.): Not reached (17, –) | study week until which no viraemia was detected in the group (300 mg/kg single s.c.): 17 week | per-exposure risk reduction (300 mg/kg single s.c. vs vehicle): 97% | Proportion of animals protected (300 mg/kg single s.c.): 5/8 | First viremic timepoint (300 mg/kg): 17 study week | average plasma GS-CA1 at estimated mucosal infection (2 weeks before first detectable viraemia, nine infected treated animals): 31.4 nM | plasma GS-CA1 at estimated mucosal infection as multiple of rhesus paEC95 (2 weeks before first detectable viraemia, range 0.4–1.6): 1.0 | Plasma SHIV viral load (Week 1, individual animals): 200 gag RNA copies per ml | Plasma SHIV viral load (Week 2, individual animals): 200 gag RNA copies per ml | Plasma SHIV viral load (Week 3, individual animals): 200 gag RNA copies per ml | Plasma SHIV viral load (Week 4, individual animals): 200 gag RNA copies per ml | Plasma SHIV viral load (Week 5, individual animals): 200 gag RNA copies per ml | Plasma SHIV viral load (Week 6, individual animals): 200 gag RNA copies per ml | Plasma SHIV viral load (Week 7, individual animals): 200 gag RNA copies per ml | Plasma SHIV viral load (Week 8, individual animals): 200 gag RNA copies per ml | Plasma SHIV viral load (Week 9, individual animals): 200 gag RNA copies per ml | Plasma SHIV viral load (Week 10, individual animals): 200 gag RNA copies per ml | Plasma SHIV viral load (Week 11, individual animals, 150 mg/kg): 200 gag RNA copies per ml and 2317 gag RNA copies per ml | Plasma SHIV viral load (Week 12, individual animals, 150 mg/kg): 200 gag RNA copies per ml and 1251253 gag RNA copies per ml | Plasma SHIV viral load (Week 13, individual animals, 150 mg/kg): 200 gag RNA copies per ml and 4495324 gag RNA copies per ml and 15543 gag RNA copies per ml | Plasma SHIV viral load (Week 14, individual animals, 150 mg/kg): 200 gag RNA copies per ml and 192698 gag RNA copies per ml and 302527 gag RNA copies per ml and 14481 gag RNA copies per ml | Plasma SHIV viral load (Week 15, individual animals, 150 mg/kg): 200 gag RNA copies per ml and 1636073 gag RNA copies per ml and 41252 gag RNA copies per ml and 436449 gag RNA copies per ml | Plasma SHIV viral load (Week 16, individual animals, 150 mg/kg): 43433 gag RNA copies per ml and 200 gag RNA copies per ml and 144532 gag RNA copies per ml and 37186 gag RNA copies per ml and 15508 gag RNA copies per ml and 62513 gag RNA copies per ml | Plasma SHIV viral load (Week 17, individual animals, 150 mg/kg): 28104 gag RNA copies per ml and 200 gag RNA copies per ml and 128422 gag RNA copies per ml and 4020 gag RNA copies per ml and 5872 gag RNA copies per ml and 1974 gag RNA copies per ml and 76901 gag RNA copies per ml | Plasma SHIV viral load (Week 18, individual animals, 150 mg/kg): 8535 gag RNA copies per ml and 200 gag RNA copies per ml and 144695 gag RNA copies per ml and 18625 gag RNA copies per ml and 13017 gag RNA copies per ml and 2250 gag RNA copies per ml and 14905 gag RNA copies per ml | Plasma SHIV viral load (Week 19, individual animals, 150 mg/kg): 2197 gag RNA copies per ml and 200 gag RNA copies per ml and 23783 gag RNA copies per ml and 733 gag RNA copies per ml and 4607 gag RNA copies per ml and 1586 gag RNA copies per ml and 872 gag RNA copies per ml | Plasma SHIV viral load (Week 20, individual animals, 150 mg/kg): 200 gag RNA copies per ml and 533 gag RNA copies per ml and 294 gag RNA copies per ml and 1229 gag RNA copies per ml | Plasma SHIV viral load (Week 21, individual animals, 150 mg/kg): 200 gag RNA copies per ml and 8674 gag RNA copies per ml and 2199 gag RNA copies per ml | Plasma SHIV viral load (Week 22, individual animals, 150 mg/kg): 200 gag RNA copies per ml and 2557 gag RNA copies per ml and 493 gag RNA copies per ml | Plasma SHIV viral load (Week 23, individual animals, 150 mg/kg): 200 gag RNA copies per ml and 1150 gag RNA copies per ml and 1806 gag RNA copies per ml and 218 gag RNA copies per ml

From paper PMC8753592, “Long-acting capsid inhibitor protects macaques from repeat SHIV challenges” (Nature, 2021)
